Laboratory results: patent publication US20190054054A1, “Methods reducing or preventing oxidation of high density lipoprotein (HDL)” (Amarin Pharmaceuticals Ireland Limited, priority 2017, published 2019)

Key:
human sdLDL = test: Copper-induced sdLDL oxidation, TBARS after 2 hr (Example 6); format: biochemical; details: for reduction of TBARS levels compared to vehicle-treated controls: 10 μM CuSO4
Experimental: An experiment to study the antioxidant effect of EPA in small dense […] performed. […] Vitamin E (α-tocopherol) was purchased from Sigma-Aldrich and prepared in ethanol at 1.0 mM (E=[…] cm^-1 at 294 nm) just prior to experimental use. All test compounds were further diluted in ethanol or aqueous buffer as needed. Venous blood was collected from healthy volunteers into vacutainer tubes containing sodium EDTA. Plasma was separated by centrifugation at 3000 g for 25 min at 4° C. and adjusted to a density of 1.020 g/mL with KBr. Triglyceride-rich lipoproteins (TGRL) and LDL fractions were then isolated by sequential centrifugation at 70,000 rpm at 4° C. in a Beckman LE-80 ultracentrifuge using a Beckman 50.4Ti rotor (Beckman Coulter, Inc., Fullerton, Calif.). The TGRL fraction (with a relative density of <1.020) was aspirated from the top of the centrifugate and discarded, leaving an LDL-enriched […] relative density of 1.020 to 1.063). […] The sdLDL subfraction was retained for additional experimentation. Plasma and lipoprotein fractions were maintained at 4° C. and protected from excessive exposure to light. Prior to oxidation experiments, EDTA was removed from the lipoprotein fraction using PD-10 desalting columns (GE Healthcare, Piscataway N.J.). After equilibration of the column with phosphate buffered saline (PBS), 2.5 mL of the lipoprotein fraction was loaded on the column and the flow-through discarded. The lipoprotein was then eluted with 3 mL of PBS. […] Data are presented as mean+S.D. for (N) separate samples or treatment groups. Differences between groups were analyzed using the two-tailed, Student's t-test (for comparisons between only two groups) or ANOVA followed by Dunnett or Student-Newman-Keuls multiple comparisons post-hoc analysis (for comparisons between three or more groups).

HUVECs = test: NO and ONOO^− release from HUVECs treated concomitantly with agents and oxLDL (Example 11, Objective 2); format: cell-based, human; details: oxLDL 11 mg/dL treated 30 min with agents, each at 10 μM; cells exposed 60 min
Experimental: The omega-3 fatty acid, cis-5,8,11,14,17-eicosapentaenoic acid (EPA) and docosahexaenoic acid (DHA) were purchased from Sigma-Aldrich (Saint Louis, Mo.) and solubilized in redistilled ethanol to 11 mM under nitrogen atmosphere. EPA and DHA stock solutions were stored at −20° C. until use.
Human umbilical vein endothelial cells (HUVECs) were obtained from healthy, female donors and isolated into primary, proliferating cell cultures (Clonetics, San Diego, Calif.). The cells were incubated in 95% air/5% CO2 at 37° C. and passaged by an enzymatic (trypsin) procedure. The confluent cells (4 to 5×10^5 cells/35 mm dish) were plated with minimum essential medium containing 3 mM L-arginine and 0.1 mM BH4 [(6R)-5,6,7,8-tetrahydrobiopterin]. Before experimental use, the cells (from second or third passage) were rinsed twice with Tyrode-HEPES buffer with 1.8 mM CaCl2.
Venous blood was collected from healthy volunteers into vacutainer tubes containing sodium EDTA. Plasma was separated by centrifugation at 3000 g for 25 min at 4° C. and adjusted to a density of 1.020 g/mL with KBr. Triglyceride-rich lipoproteins (TGRL) and LDL fractions were isolated by sequential centrifugation at 70,000 rpm at 4° C. in a Beckman LE-80 ultracentrifuge using a Beckman 50.4Ti rotor (Beckman Coulter, Inc., Fullerton, Calif.). The TGRL fraction (with a relative density of <1.020) was aspirated from the top of the centrifugate and discarded, leaving an LDL-enriched infranate (with a relative density of 1.020-1.063). The LDL subfraction was retained for additional experimentation. Plasma and lipoprotein fractions were maintained at 4° C. and protected from excessive exposure to light. Prior to oxidation experiments, EDTA was removed from the lipoprotein fraction using PD-10 desalting columns (GE Healthcare, Piscataway N.J.). After equilibration of the column with phosphate buffered saline (PBS), 2.5 mL of the lipoprotein fraction was loaded on the column and the flow-through discarded. The lipoprotein was then eluted with 3 mL of PBS. The LDL fractions were further diluted with PBS to obtain a 100 μg/mL apoB100 concentration.
LDL underwent oxidation following the addition of 10 μM CuSO4. […] Sample TBARS concentrations were determined spectrophotometrically by measuring sample absorbances against a standard curve derived from the hydrolysis of 1,1,3,3-tetramethoxypropane. […]
The amperometric method (with a response time of 0.1 ms) provides a quantitative signal (current) that is directly proportional to changes (from basal levels) in NO or ONOO^− concentration. […] Basal NO or ONOO^− levels were measured by differential pulse voltammetry in separate experiments. […]

Row | SMILES | reduction of TBARS levels compared to vehicle-treated controls (human sdLDL; 1.0 μM) | reduction of TBARS levels compared to vehicle-treated controls (human sdLDL; 10.0 μM) | NO (HUVECs) | ONOO^− (HUVECs) | effect on sdLDL oxidation over the concentration range (human sdLDL; 1.0 μM to 10.0 μM)
1 | CC/C=C\C/C=C\C/C=C\C/C=C\C/C=C\CCCC(=O)O [EPA, cis-5,8,11,14,17-eicosapentaenoic acid] | 13% | 57% | 385 ± 43 | 232 ± 24 | 
2 | CC/C=C\C/C=C\C/C=C\C/C=C\C/C=C\C/C=C\CCC(=O)O [DHA, docosahexaenoic acid] |  |  | 362 ± 39 | 240 ± 27 | 
3 | Cc1c(C)c2c(c(C)c1O)CC[C@@](C)(CCC[C@H](C)CCC[C@H](C)CCCC(C)C)O2 [vitamin E, α-tocopherol] |  | 26% |  |  | did not inhibit sdLDL oxidation except at the highest concentration
